Our source for the IC50 values is US20260356856A1, “KRAS G12S AND G12C INHIBITORS” (MIRATI THERAPEUTICS, INC., priority 2023, published 2026).

The target in one test is T1, KRas WT (Homo sapiens, UniProt P01116).
T1 construct: Biotinylated KRas (corresponding to amino acids 1-169, produced at Accelegan Inc.); biotin (biotinylated); purchased Accelegan Inc
In words: KRas binding assay, TR-FRET displacement of Cy5 labelled tracer. The settings on record: 60-minute incubation at room temperature, 1% DMSO, pH 7.5. The gist of the method: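 Tb-streptavidin captured biotinylated KRas (1-169) in HEPES 50 mM, DTT 1 mM, MgCl2 5 mM, Tween-20 0.005% (pH 7.5), alongside tracer and compound at 1% final DMSO. One hour at RT, then read; IC50 from 4-parameter POC fit.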
For orientation: In TR-FRET formats the signal depends on donor and acceptor labels being close together.

A further test addresses T2, KRas G12C (Homo sapiens, UniProt P01116, G12C).
T2 construct: Biotinylated KRas (corresponding to amino acids 1-169, produced at Accelegan Inc.); biotin (biotinylated); purchased Accelegan Inc
The description is as above. Particulars: 60-minute incubation at room temperature, 1% DMSO, pH 7.5. In outline:
(§1)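 Biotinylated KRas (residues 1-169) was incubated with tracer, terbium-streptavidin and compound at 1% DMSO final in 50 mM HEPES pH 7.5 containing 5 mM MgCl2, 0.005% Tween-20 and 1 mM DTT. The plate was read after 60 min at room temperature, and percent-of-control data were fit to a 4-parameter IC50 equation.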

Another test addresses T3, KRas G12S (Homo sapiens, UniProt P01116, G12S).
T3 construct: Biotinylated KRas (corresponding to amino acids 1-169, produced at Accelegan Inc.); biotin (biotinylated); purchased Accelegan Inc
The test is described as above. The settings on record: 60-minute incubation at room temperature, 1% DMSO, pH 7.5. The gist of the method:
as §1

For test [1], the target named is T4, KRas-mediated phosphorylation of ERK in MKN1 cells (Homo sapiens, UniProt P01116).
T4 construct: pERK HTRF read-out
The test can be described thus: Inhibition of KRas-mediated phosphorylation of ERK (HTRF), MKN1 cells. In kind it is cell-based. Particulars: MKN1 cells (KRas WT); HTRF pERK; 3 h incubation. The method, then: Inhibition of KRas Phosphorylation of ERK (HTRF) by Exemplary Compounds of Formula (Ia) or (Ib)
Cisbio HTRF Advanced pERK Assay Catalog #64AERPEH • Cells: MKN1, PSN1 • Procedure: • 1. Day 1: Seed 6,000 cells/well −25 μl/well in 384-well white solid bottom plate; RPM1_10% FBS. Incubate overnight at 37 °C/5% CO2. • 2.

Test [2] addresses T5, KRas-mediated phosphorylation of ERK in H358 cells (Homo sapiens, UniProt P01116, G12C).
T5 construct: pERK HTRF read-out
The test can be described thus: Inhibition of KRas-mediated phosphorylation of ERK (HTRF), H358 cells. In kind it is cell-based. Particulars: HTRF pERK, 3 h incubation.

Test [3] addresses T6, KRas-mediated phosphorylation of ERK in A549 cells (Homo sapiens, UniProt P01116, G12S).
T6 construct: pERK HTRF read-out
In words: Inhibition of KRas-mediated phosphorylation of ERK (HTRF), A549 cells. In kind it is cell-based. Particulars: HTRF pERK, 3 h incubation.

T3 sequence (P01116 1-169 isoform P01116-2 G12S): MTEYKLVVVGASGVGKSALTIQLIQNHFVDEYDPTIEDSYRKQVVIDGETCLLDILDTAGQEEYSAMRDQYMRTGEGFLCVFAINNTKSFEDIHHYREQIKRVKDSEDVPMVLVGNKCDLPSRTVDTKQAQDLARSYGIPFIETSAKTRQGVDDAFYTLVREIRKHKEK
T6 sequence (P01116 1-188 isoform P01116-2 G12S): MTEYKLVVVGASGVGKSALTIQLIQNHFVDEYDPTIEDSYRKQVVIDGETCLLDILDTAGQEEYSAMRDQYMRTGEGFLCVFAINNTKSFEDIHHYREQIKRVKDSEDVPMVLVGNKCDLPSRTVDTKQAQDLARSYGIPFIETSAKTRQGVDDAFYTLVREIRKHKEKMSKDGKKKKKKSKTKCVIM
T1 sequence (P01116 1-169 isoform P01116-2): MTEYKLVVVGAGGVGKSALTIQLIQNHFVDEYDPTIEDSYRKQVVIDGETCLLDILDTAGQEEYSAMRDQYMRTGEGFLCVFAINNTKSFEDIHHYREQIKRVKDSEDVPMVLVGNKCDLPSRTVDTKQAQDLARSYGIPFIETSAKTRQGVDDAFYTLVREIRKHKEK
T4 sequence (P01116 1-188 isoform P01116-2): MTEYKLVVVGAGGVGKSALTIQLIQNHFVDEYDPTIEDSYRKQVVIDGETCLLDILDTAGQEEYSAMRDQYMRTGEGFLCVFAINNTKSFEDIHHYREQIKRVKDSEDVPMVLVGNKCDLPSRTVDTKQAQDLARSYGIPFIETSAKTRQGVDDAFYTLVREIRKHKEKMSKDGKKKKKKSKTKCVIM
T2 sequence (P01116 1-169 isoform P01116-2 G12C): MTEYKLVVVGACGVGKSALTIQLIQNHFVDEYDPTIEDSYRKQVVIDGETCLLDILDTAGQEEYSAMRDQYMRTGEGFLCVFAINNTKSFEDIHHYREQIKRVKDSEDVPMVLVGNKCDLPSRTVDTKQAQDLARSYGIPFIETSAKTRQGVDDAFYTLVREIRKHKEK
T5 sequence (P01116 1-188 isoform P01116-2 G12C): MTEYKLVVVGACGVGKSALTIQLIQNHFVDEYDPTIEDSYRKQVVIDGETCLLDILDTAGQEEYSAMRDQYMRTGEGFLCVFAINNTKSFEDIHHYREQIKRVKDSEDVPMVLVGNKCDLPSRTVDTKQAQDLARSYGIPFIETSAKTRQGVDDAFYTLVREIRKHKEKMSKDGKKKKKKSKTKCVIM

Broadly, the IC50 is the concentration at which inhibition is half-maximal. As for `CCc1c(F)ccc2cc(O)cc(-c3ncc4c(N(C)CCC(=O)n5ccc(C)n5)nc(OC[C@@]56CCCN5C[C@H](F)C6)nc4c3F)c12` [Example 121, 3-((7-(8-ethyl-7-fluoro-3-hydroxynaphthalen-1-yl)-8-fluoro-2-(((2R,7aS)-2-fluorotetrahydro-1H-pyrrolizin-7a(5H)-yl)methoxy)pyrido[4,3-d]pyrimidin-4-yl)(methyl)amino)-1-(3-methyl-1H-pyrazol-1-yl) propan-1-one], the concentration for half-maximal inhibition (IC50) turned out to be 30 nM at KRas WT; 16 nM on KRas G12C; 16 nM on KRas G12S; 875 nM in test [1]; 382 nM in test [2]; 243 nM in test [3].

`CCc1c(F)ccc2cc(O)cc(-c3ncc4c(N5CCN(C(=O)n6ccc(C)n6)C(CF)C5)nc(OC[C@@]56CCCN5C[C@H](F)C6)nc4c3F)c12` (stereo partly drawn) [Example 123, (4-(7-(8-ethyl-7-fluoro-3-hydroxynaphthalen-1-yl)-8-fluoro-2-(((2R,7aS)-2-fluorotetrahydro-1H-pyrrolizin-7a(5H)-yl)methoxy)pyrido[4,3-d]pyrimidin-4-yl)-2-(fluoromethyl)piperazin-1-yl)(3-methyl-1H-pyrazol-1-yl)methanone]: the IC50 on KRas WT is 30 nM; at KRas G12C it was 42 nM; on KRas G12S, 68 nM; in test [1], 219 nM; in test [2] it was 264 nM; in test [3], 2740 nM.

`CCc1c(F)ccc2cc(O)cc(-c3ncc4c(N5CCCCC(C(=O)n6ccc(C)n6)CC5)nc(OC[C@@]56CCCN5C/C(=C\F)C6)nc4c3F)c12` (stereo partly drawn) [Example 124, (1-(7-(8-ethyl-7-fluoro-3-hydroxynaphthalen-1-yl)-8-fluoro-2-(((S,Z)-2-(fluoromethylene)tetrahydro-1H-pyrrolizin-7a(5H)-yl)methoxy)pyrido[4,3-d]pyrimidin-4-yl)azocan-4-yl)(3-methyl-1H-pyrazol-1-yl)methanone]: the half-maximal inhibitory concentration (IC50) at KRas WT came out at 103 nM; at KRas G12C, 4 nM; on KRas G12S, 3 nM; in test [1], 93 nM; in test [2] it was 25 nM; in test [3], 7 nM.

Take `CCc1c(F)ccc2cc(O)cc(-c3ncc4c(N5CCN(C(=O)n6ccc(C)n6)C(C(F)(F)F)C5)nc(OC[C@@]56CCCN5C[C@H](F)C6)nc4c3F)c12` (stereo partly drawn) [Example 127, (4-(7-(8-ethyl-7-fluoro-3-hydroxynaphthalen-1-yl)-8-fluoro-2-(((2R,7aS)-2-fluorotetrahydro-1H-pyrrolizin-7a(5H)-yl)methoxy)pyrido[4,3-d]pyrimidin-4-yl)-2-(trifluoromethyl)piperazin-1-yl)(3-methyl-1H-pyrazol-1-yl)methanone]: the IC50 at KRas WT was found to be 193 nM; on KRas G12C, 224 nM; at KRas G12S it was 407 nM; in test [1], 514 nM; in test [2], 635 nM; in test [3], 7190 nM.

`CCc1c(F)ccc2cc(O)cc(-c3ncc4c(N5C[C@H]6C[C@@H](C(=O)n7ccc(C)n7)C[C@H]6C5)nc(OC[C@@]56CCCN5C[C@H](F)C6)nc4c3F)c12` [Example 128, ((3aR,5S,6aS)-2-(7-(8-ethyl-7-fluoro-3-hydroxynaphthalen-1-yl)-8-fluoro-2-(((2R,7aS)-2-fluorotetrahydro-1H-pyrrolizin-7a(5H)-yl)methoxy)pyrido[4,3-d]pyrimidin-4-yl)octahydrocyclopenta[c]pyrrol-5-yl)(3-methyl-1H-pyrazol-1-yl)methanone]: the IC50 at KRas WT was 1190 nM; on KRas G12C it was 93 nM; on KRas G12S, 11 nM; in test [1], 7430 nM; in test [2] it was 1540 nM; in test [3], 57 nM.
